We go through 1 molecule from patent publication US8952024B2, “Herbicidal pyrimidone derivatives” (E I du Pont de Nemours and Company, priority 2009, dated 2015).

Common to all, as to assay: Test D pre-/postemergence plant response
Common to all, as to type: in vivo

For experiment [1], the system named is itchgrass (Rottboellia cochinchinensis). Conditions: Postemergence, 125 g ai/ha; scale 0 to 100 (0 no effect, 100 complete control). The essentials: (§1)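 Visual 0–100 scoring (100 = complete control) versus untreated controls after 14–21 greenhouse days. Compounds, formulated in surfactant-containing non-phytotoxic solvent, were applied preemergence to seeded loam/sand and postemergence to 2–18 cm plants (1–4 leaves).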

Experiment [2] has as its system guineagrass (Panicum maximum). As to conditions: Postemergence, 125 g ai/ha; scale 0 to 100 (0 no effect, 100 complete control). The essentials: as §1
In experiment [3] the test system is field bindweed (Convolvulus arvensis). As to conditions: Postemergence, 125 g ai/ha; scale 0 to 100 (0 no effect, 100 complete control). The essentials: as §1
For experiment [4], the system named is Surinam grass (Brachiaria decumbens). Conditions: Postemergence, 125 g ai/ha; scale 0 to 100 (0 no effect, 100 complete control). The essentials: as §1
The test system of experiment [5] is bluegrass (annual bluegrass, Poa annua). Conditions: Postemergence, scale 0 to 100 (0 no effect, 100 complete control). Put shortly:
as §1

In experiment [6] the test system is mallow (common mallow, Malva sylvestris). Conditions: Postemergence, 125 g ai/ha; scale 0 to 100 (0 no effect, 100 complete control). The essentials: as §1
Experiment [7] deals with barnyardgrass (Echinochloa crus-galli). As to conditions: Postemergence, scale 0 to 100 (0 no effect, 100 complete control). The essentials:
as §1

For experiment [8], the system named is sowthistle (common sowthistle, Sonchus oleraceous). Conditions: Postemergence, 125 g ai/ha; scale 0 to 100 (0 no effect, 100 complete control). The essentials: as §1
Experiment [9] deals with signalgrass (broadleaf signalgrass, Brachiaria platyphylla). As to conditions: Postemergence, 125 g ai/ha; scale 0 to 100 (0 no effect, 100 complete control). Put shortly: as §1
The test system of experiment [10] is morningglory (pitted morningglory, Ipomoea lacunosa). Conditions: Postemergence, 125 g ai/ha; scale 0 to 100 (0 no effect, 100 complete control). Put shortly: as §1
Experiment [11] deals with chickweed (common chickweed, Stellaria media). Conditions: Postemergence, 125 g ai/ha; scale 0 to 100 (0 no effect, 100 complete control). The essentials: as §1
Experiment [12] has as its system black mustard (Brassica nigra). Conditions: Postemergence, scale 0 to 100 (0 no effect, 100 complete control). Put shortly:
as §1

For experiment [13], the system named is goosegrass (Eleusine indica). As to conditions: Postemergence, 125 g ai/ha; scale 0 to 100 (0 no effect, 100 complete control). Put shortly: as §1
The test system of experiment [14] is green foxtail (Setaria viridis). As to conditions: Postemergence, 125 g ai/ha; scale 0 to 100 (0 no effect, 100 complete control). Put shortly: as §1
The subject of experiment [15] is johnsongrass (Sorghum halepense). As to conditions: Postemergence, 125 g ai/ha; scale 0 to 100 (0 no effect, 100 complete control). Put shortly:
as §1

Experiment [16] deals with nutsedge (purple nutsedge, Cyperus rotundus). As to conditions: Postemergence, 125 g ai/ha; scale 0 to 100 (0 no effect, 100 complete control). Put shortly:
as §1

The test system of experiment [17] is large crabgrass (Digitaria sanguinalis). Conditions: Postemergence, 125 g ai/ha; scale 0 to 100 (0 no effect, 100 complete control). Put shortly: as §1
In the next experiment the test system is kochia (Kochia scoparia). As to conditions: Postemergence, 125 g ai/ha; scale 0 to 100 (0 no effect, 100 complete control). Put shortly: as §1

For `COCCn1c(-c2ccsc2)ncc(C(=O)C2=C(O)C3CCC(C3)C2=O)c1=O` (stereo not drawn) [Compound 228], in experiment [1], the “Plant response rating, Itchgrass” value was determined as 65. For the same molecule, the “Plant response rating, Guineagrass” value in experiment [2] is recorded as 15. The “Plant response rating, Field Bindweed” value in experiment [3] was 70. The “Plant response rating, Surinam Grass” value in [4] amounted to 70. In addition, the “Plant response rating, Bluegrass” value turned out to be 0 in experiment [5] (31 g ai/ha) and 5 in [5] (125 g ai/ha). In addition, the “Plant response rating, Mallow” value in [6] was 65. The results for the “Plant response rating, Barnyardgrass” value in experiment [7] (31 g ai/ha) and in [7] (125 g ai/ha) were 20 and 80, respectively. Moreover, in experiment [8], the “Plant response rating, Sowthistle” value is given as 98. For the same molecule, the “Plant response rating, Signalgrass” value in experiment [9] is 20. Moreover, the “Plant response rating, Morningglory” value in experiment [10] turned out to be 50. For the same molecule, the “Plant response rating, Chickweed” value in experiment [11] is recorded as 75. Also, the entries for the “Plant response rating, Black Mustard” value in experiment [12] (31 g ai/ha) and in experiment [12] (125 g ai/ha) were 20 and 50, respectively. Besides, the “Plant response rating, Goosegrass” value in [13] is 70. In addition, the “Plant response rating, Foxtail, Green” value in [14] worked out at 80. In experiment [15], the “Plant response rating, Johnsongrass” value was found to be 70. Further, the “Plant response rating, Nutsedge, Purple” value in [16] stood at 15. Moreover, the “Plant response rating, Crabgrass, Large” value in experiment [17] is on record as 75. Moreover, the “Plant response rating, Kochia” value with kochia (Kochia scoparia) was determined as 75.
